Results from patent US6914045B2, “Glycopeptide antibiotics” (Wyeth Holdings Corporation, priority 2001, dated 2005).
Converted amounts (≈) assume the structure as drawn.

Key:
Experiment in all cases: in vitro antibacterial evaluation, MIC by broth dilution
Type in all cases: cell-based
[1] = system: Staphylococcus sp.; details: broth dilution, 18 hours at 35° C.; for MIC Staphylococcus aureus (GC 1131): strain GC 1131
Summary of the method: (§1)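 Following National Committee for Clinical Laboratory Standards recommendations (M7-A2), susceptibility was measured by dilution in Muller-Hinton II […]. Bacteria were seeded at 5×10^5 CFU/mL against compound concentrations from 64 down to 0.06 μg/mL.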

[2] = system: Streptococcus sp.; details: broth dilution, 18 hours at 35° C.
Summary of the method: as §1

[3] = system: Enterococcus sp.; details: broth dilution, 18 hours at 35° C.
Summary of the method: as §1

[4] = system: Escherichia coli
Summary of the method: as §1

For `COc1cccc(C2OC3C(OC4C(CO)OC(Oc5ccc(CC6NC(=O)C(C(C)c7ccccc7)NC(=O)CNC(=O)C(CO)NC(=O)C(C(O)C7CNC(=N)N7C7OC(CO)C(O)C(O)C7O)NC(=O)C(C(O)C7CNC(=N)N7)NC6=O)cc5)C(O)C4O)OC(CO)C(O)C3O2)c1` (single isomer, unassigned) [Example 137a, Cyclo[glycyl-β-methylphenylalanyl-O-[4-O-[2,3-O-(3-methoxybenzylidene)hexopyranosyl]-hexopyranosyl]tyrosyl-3-(2-iminoimidazolidin-4-yl)seryl-3-(3-hexopyranosyl-2-iminoimidazolidin-4-yl)serylseryl]], the “MIC Staphylococcus aureus (GC 1131)” value ([1]; inoculum 5×10^5 CFU/mL) was 32 µg/mL (≈ 22.6 µM), the “MIC Staphylococcus aureus (ATCC 29213)” value ([1]; strain ATCC 29213) was 32 µg/mL (≈ 22.6 µM) and the “MIC Staphylococcus aureus (GC 1131)” value [1] was 32 µg/mL (≈ 22.6 µM). For the same compound, the “MIC Staphylococcus aureus (GC 3051)” value ([1]; strain GC 3051) was 32 µg/mL (≈ 22.6 µM), the “MIC Staphylococcus aureus (GC 3053)” value ([1]; strain GC 3053) was 32 µg/mL (≈ 22.6 µM) and the “MIC Staphylococcus aureus (GC 4541)” value ([1]; strain GC 4541) was 16 µg/mL (≈ 11.3 µM). The “MIC Staphylococcus aureus (GC 4542)” value ([1]; strain GC 4542) was 32 µg/mL (≈ 22.6 µM), the “MIC Staphylococcus aureus-SMITH (GC 4543)” value ([1]; strain GC 4543) was 16 µg/mL (≈ 11.3 µM) and the “MIC Staphylococcus aureus (GC 4544)” value ([1]; strain GC 4544) was 32 µg/mL (≈ 22.6 µM). For the same compound, the “MIC Staphylococcus aureus (GC 4545)” value ([1]; strain GC 4545) was 32 µg/mL (≈ 22.6 µM), the “MIC Staphylococcus haemolyticus (GC 4546)” value ([1]; strain GC 4546) was 16 µg/mL (≈ 11.3 µM) and the “MIC Coagulase Negative Staphylococcus (GC 4547)” value ([1]; strain GC 4547) was 16 µg/mL (≈ 11.3 µM). For the same compound, the “MIC Coagulase Negative Staphylococcus (GC 4548)” value ([1]; strain GC 4548) was 8 µg/mL (≈ 5.66 µM), the “MIC Coagulase Negative Staphylococcus (GC 4549)” value ([1]; strain GC 4549) was 8 µg/mL (≈ 5.66 µM) and the “MIC Coagulase Negative Staphylococcus (GC 4551)” value ([1]; strain GC 4551) was 16 µg/mL (≈ 11.3 µM). The “MIC Coagulase Negative Staphylococcus (GC 6257)” value ([1]; strain GC 6257) was 8 µg/mL (≈ 5.66 µM), the “MIC Staphylococcus aureus-SMITH (GC 4543)” value ([1]; strain SMITH GC 4543) was 16 µg/mL (≈ 11.3 µM) and the “MIC Streptococcus agalactiae (GC 4564)” value ([2]; Streptococcus agalactiae (GC 4564)) was 16 µg/mL (≈ 11.3 µM). The “MIC Streptococcus pneumoniae (ATCC 6301)” value ([2]; Streptococcus pneumoniae (ATCC 6301)) was 8 µg/mL (≈ 5.66 µM), the “MIC Streptococcus pneumoniae (GC 1894)” value ([2]; Streptococcus pneumoniae (GC 1894)) was 4 µg/mL (≈ 2.83 µM) and the “MIC Streptococcus pneumoniae (GC 4565)” value ([2]; Streptococcus pneumoniae (GC 4565)) was 16 µg/mL (≈ 11.3 µM). The “MIC Streptococcus pyogenes (GC 4563)” value ([2]; Streptococcus pyogenes (GC 4563)) was 16 µg/mL (≈ 11.3 µM), the “MIC Streptococcus pneumoniae (ATCC 6301)” value ([2]; strain ATCC 6301) was 8 µg/mL (≈ 5.66 µM) and the “MIC Streptococcus pneumoniae (GC 1894)” value ([2]; strain GC 1894) was 4 µg/mL (≈ 2.83 µM). The “MIC Streptococcus pyogenes (GC 4563)” value ([2]; strain GC 4563) was 16 µg/mL (≈ 11.3 µM), the “MIC Streptococcus agalactiae (GC 4564)” value ([2]; strain GC 4564) was 16 µg/mL (≈ 11.3 µM) and the “MIC Streptococcus pneumoniae (GC 4565)” value ([2]; strain GC 4565) was 16 µg/mL (≈ 11.3 µM). For the same compound, the “MIC Enterococcus avium (GC 4558)” value ([3]; Enterococcus avium (GC 4558)) was 64 µg/mL (≈ 45.3 µM), the “MIC Enterococcus faecalis (ATCC 29212)” value ([3]; Enterococcus faecalis (ATCC 29212)) was >64 µg/mL and the “MIC Enterococcus faecalis (GC 2242)” value ([3]; Enterococcus faecalis (GC 2242)) was >64 µg/mL. The “MIC Enterococcus faecalis (GC 2691)” value ([3]; Enterococcus faecalis (GC 2691)) was >64 µg/mL, the “MIC Enterococcus faecalis (GC 3059)” value ([3]; Enterococcus faecalis (GC 3059)) was >64 µg/mL and the “MIC Enterococcus faecalis (GC 4552)” value ([3]; Enterococcus faecalis (GC 4552)) was >64 µg/mL. For the same compound, the “MIC Enterococcus faecalis (GC 4553)” value ([3]; Enterococcus faecalis (GC 4553)) was >64 µg/mL, the “MIC Enterococcus faecalis (GC 4554)” value ([3]; Enterococcus faecalis (GC 4554)) was >64 µg/mL and the “MIC Enterococcus faecalis (GC 6189)” value ([3]; Enterococcus faecalis (GC 6189)) was >64 µg/mL. For the same compound, the “MIC Enterococcus faecium (GC 2243)” value ([3]; Enterococcus faecium (GC 2243)) was >64 µg/mL, the “MIC Enterococcus faecium (GC 4556)” value ([3]; Enterococcus faecium (GC 4556)) was >64 µg/mL and the “MIC Enterococcus faecium (GC 4557)” value ([3]; Enterococcus faecium (GC 4557)) was 16 µg/mL (≈ 11.3 µM). The “MIC Enterococcus faecalis (ATCC 29212)” value ([3]; strain ATCC 29212) was >64 µg/mL, the “MIC Enterococcus faecalis (GC 2242)” value ([3]; strain GC 2242) was >64 µg/mL and the “MIC Enterococcus faecium (GC 2243)” value ([3]; strain GC 2243) was >64 µg/mL. The “MIC Enterococcus faecalis (GC 2691)” value ([3]; strain GC 2691) was >64 µg/mL, the “MIC Enterococcus faecalis (GC 3059)” value ([3]; strain GC 3059) was >64 µg/mL and the “MIC Enterococcus faecalis (GC 4552)” value ([3]; strain GC 4552) was >64 µg/mL. The “MIC Enterococcus faecalis (GC 4553)” value ([3]; strain GC 4553) was >64 µg/mL, the “MIC Enterococcus faecalis (GC 4554)” value ([3]; strain GC 4554) was >64 µg/mL and the “MIC Enterococcus faecium (GC 4556)” value ([3]; strain GC 4556) was >64 µg/mL. For the same compound, the “MIC Enterococcus faecium (GC 4557)” value ([3]; strain GC 4557) was 16 µg/mL (≈ 11.3 µM), the “MIC Enterococcus avium (GC 4558)” value ([3]; strain GC 4558) was 64 µg/mL (≈ 45.3 µM) and the “MIC Enterococcus faecalis (GC 6189)” value ([3]; strain GC 6189) was >64 µg/mL. The “MIC Escherichia coli (ATCC 25922)” value ([4]; strain ATCC 25922, 18 hours at 35° C.) was >64 µg/mL, the “MIC Escherichia coli (GC 4559)” value ([4]; strain GC 4559, 18 hours at 35° C.) was >64 µg/mL and the “MIC Escherichia coli (GC 4560)” value ([4]; strain GC 4560, 18 hours at 35° C.) was 8 µg/mL (≈ 5.66 µM).
